Molecules are shown by their SMILES.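 The compound was tested at five concentrations on cells cultured in 96-well plates, with a 48-hour exposure period. Here, GI50 denotes the concentration required for 50% inhibition of growth.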 Active and inactive are the calls of the source. Rule as the data show it: active = GI50 up to about 1.1 µM and inactive = higher.

Among the test systems are HCT-116; OVCAR-8; UACC-257; 786-0; HOP-92; TK-10; SK-MEL-28; A549; SK-OV-3; M14; U-251; HOP-62; CCRF-CEM; HCC 2998; UO-31; NCI-H460; MOLT-4; RPMI-8226.
Assay in all cases: inhibition of tumour cell growth, NCI panel, 48 h

With `CC(=O)OCCOCNC(=S)N/N=C/c1cc([N+](=O)[O-])ccc1O`, the GI50 in the assay with HCT-116 is 64.3 µM (inactive); in the assay on OVCAR-8, 90.2 µM (inactive); in the assay with UACC-257 it was > 100 µM (inactive); with 786-0, > 100 µM (inactive); in the assay with HOP-92 it was > 100 µM (inactive); in the assay with TK-10, > 100 µM (inactive). Besides, the GI50 is > 100 µM (inactive) in the assay with SK-MEL-28; > 100 µM (inactive) in the assay on A549; > 100 µM (inactive) in the assay on SK-OV-3; 86.7 µM (inactive) in the assay with M14; > 100 µM (inactive) in the assay on U-251; > 100 µM (inactive) with HOP-62. The GI50 was 56.6 µM (inactive) in the assay on CCRF-CEM, 72.1 µM (inactive) in the assay with HCC 2998, > 100 µM (inactive) in the assay with UO-31 and > 100 µM (inactive) with NCI-H460.

Turning to `C=CCC1[C@@H](C(C)(C)C(C(C)=O)C(=O)C(=O)OC)OC(C(C)(C)C)N1C(=O)OC` (some centres undefined), the GI50 with HCT-116 was 47.4 µM (inactive); in the assay on OVCAR-8 it was > 100 µM (inactive); with UACC-257, > 100 µM (inactive); with 786-0, > 100 µM (inactive); in the assay on HOP-92, 48.5 µM (inactive); in the assay on TK-10 it was > 100 µM (inactive). For the same molecule, the GI50 was 24.6 µM (inactive) in the assay on MOLT-4; > 100 µM (inactive) in the assay with SK-MEL-28; > 100 µM (inactive) in the assay with A549; > 100 µM (inactive) with SK-OV-3; > 100 µM (inactive) in the assay with M14; > 100 µM (inactive) with U-251. The GI50 is > 100 µM (inactive) in the assay with HOP-62; 49 µM (inactive) in the assay with CCRF-CEM; > 100 µM (inactive) with HCC 2998; > 100 µM (inactive) in the assay with UO-31; > 100 µM (inactive) with NCI-H460.

On to `C=CCCC12CCCC(=O)C1Sc1ccc3ccccc3c12` (centres undefined), for which the GI50 is 32.1 µM (inactive) in the assay on OVCAR-8; 17.1 µM (inactive) with UACC-257; 17.9 µM (inactive) in the assay with 786-0; 20.9 µM (inactive) in the assay on TK-10; 13.2 µM (inactive) in the assay with MOLT-4; 20.7 µM (inactive) in the assay on SK-MEL-28. The GI50 in the assay on A549 is 10.2 µM (inactive); with RPMI-8226, 12.9 µM (inactive); with SK-OV-3 it was 21.1 µM (inactive); in the assay on M14, 13.2 µM (inactive); in the assay with U-251, 16.6 µM (inactive); with HOP-62 it was 19.8 µM (inactive). Further, the GI50 with CCRF-CEM is 17.7 µM (inactive); with HCC 2998 it was 14.1 µM (inactive); in the assay with UO-31, 16.8 µM (inactive).

For the molecule `c1ccc2c(c1)N=C(c1ccc3ccccc3c1)CC(c1cccc3ccccc13)S2` (centres undefined), the GI50 is 37.9 µM (inactive) with OVCAR-8; 56.6 µM (inactive) in the assay on UACC-257; 44.1 µM (inactive) with 786-0; 75.7 µM (inactive) in the assay with TK-10; 11.4 µM (inactive) in the assay on MOLT-4; 83.4 µM (inactive) with SK-MEL-28. The GI50 is 48 µM (inactive) in the assay on A549; 11.2 µM (inactive) in the assay on RPMI-8226; > 100 µM (inactive) in the assay with SK-OV-3; 54.8 µM (inactive) in the assay on M14; 60.1 µM (inactive) in the assay on U-251; 85.5 µM (inactive) in the assay on HOP-62. The GI50 is 12.6 µM (inactive) with CCRF-CEM, 15.1 µM (inactive) with HCC 2998, 59.7 µM (inactive) with UO-31 and 29.6 µM (inactive) in the assay with NCI-H460.

For the molecule `Cl[Si]1(Cl)Oc2ccccc2O[Si](Cl)(Cl)Oc2ccccc2O1`, the GI50 with HCT-116 is 33.2 µM (inactive); in the assay on OVCAR-8, 30.5 µM (inactive); in the assay on 786-0, 8.45 µM (inactive); with HOP-92, 17.7 µM (inactive); in the assay on TK-10 it was 46.1 µM (inactive); with MOLT-4, 3.25 µM (inactive). For the same molecule, the GI50 with SK-MEL-28 is 33.3 µM (inactive); in the assay on A549 it was 14.3 µM (inactive); in the assay with RPMI-8226, 9.18 µM (inactive); with SK-OV-3, 54.3 µM (inactive); in the assay on M14 it was 15.5 µM (inactive); in the assay on U-251 it was 28.1 µM (inactive). Besides, the GI50 was 26.2 µM (inactive) in the assay with HOP-62, 1.45 µM (inactive) in the assay on CCRF-CEM, 20.7 µM (inactive) in the assay on HCC 2998 and 6.9 µM (inactive) in the assay on NCI-H460.

Regarding `COc1cc2c(c(OC)c1OC)-c1ccc(OC)c(=O)cc1[C@@H](N(C)C=O)CC2`, the GI50 is 0.0173 µM (active) in the assay with HCT-116; 0.0218 µM (active) with OVCAR-8; 0.0277 µM (active) with 786-0; 0.0137 µM (active) in the assay with HOP-92; 1.45 µM (inactive) in the assay on TK-10; 0.0212 µM (active) in the assay on MOLT-4. Also, the GI50 with SK-MEL-28 is < 0.01 µM (active); in the assay on A549 it was 0.0246 µM (active); in the assay on RPMI-8226, 0.0249 µM (active); with M14, < 0.0122 µM (active); in the assay with U-251, < 0.0163 µM (active); in the assay on HOP-62 it was < 0.0164 µM (active). The GI50 was 0.0164 µM (active) in the assay with CCRF-CEM, 0.0168 µM (active) in the assay with HCC 2998, 0.752 µM (active) in the assay on UO-31 and < 0.0179 µM (active) with NCI-H460.

With `C[P+]1(c2ccccc2)CCCCC1`, the GI50 with OVCAR-8, in the assay with UACC-257, in the assay with 786-0, with TK-10, with MOLT-4 and with SK-MEL-28 was > 100 µM (inactive) in each case. The GI50 in the assay with A549, with RPMI-8226, with SK-OV-3, with M14, in the assay on U-251 and with HOP-62 was > 100 µM (inactive) in each case. Further, the GI50 with CCRF-CEM, with HCC 2998, with UO-31 and with NCI-H460 was > 100 µM (inactive) in each case.

On to `CN(/N=C/c1cccc2cccnc12)c1ccc([N+](=O)[O-])cc1`, for which the GI50 in the assay with HCT-116 was > 100 µM (inactive); with OVCAR-8 it was > 100 µM (inactive); in the assay with UACC-257 it was > 100 µM (inactive); in the assay with 786-0, > 100 µM (inactive); in the assay on HOP-92, > 100 µM (inactive); with TK-10, 91.2 µM (inactive). Besides, the GI50 in the assay with MOLT-4 is > 100 µM (inactive); with SK-MEL-28, > 100 µM (inactive); in the assay with A549, 48.1 µM (inactive); in the assay on RPMI-8226, > 100 µM (inactive); in the assay with SK-OV-3, 43.1 µM (inactive); with M14 it was > 100 µM (inactive). For the same molecule, the GI50 with HOP-62 is > 100 µM (inactive); with CCRF-CEM, > 100 µM (inactive); in the assay on HCC 2998 it was > 100 µM (inactive); with NCI-H460, 8.07 µM (inactive).

Take `Clc1ccc(SCCSCCCCCCCCCCSCCSc2ccc(Cl)cc2)cc1`: the GI50 in the assay on OVCAR-8, in the assay on UACC-257, in the assay on 786-0, in the assay with HOP-92, in the assay with TK-10 and in the assay on MOLT-4 was > 100 µM (inactive) in each case. Besides, the GI50 with SK-MEL-28, with A549, with RPMI-8226, in the assay with SK-OV-3, in the assay on U-251 and in the assay with HOP-62 was > 100 µM (inactive) in each case. Also, the GI50 in the assay on CCRF-CEM, with HCC 2998, with UO-31 and in the assay with NCI-H460 was > 100 µM (inactive) throughout.

(Values after ChEMBL document CHEMBL1201862, “PubChem BioAssay data set” (2004).)
